In PMC5071873, “The Effects of Puerarin on Rat Ventricular Myocytes and the Potential Mechanism” (Scientific Reports, 2016):

Experiments:
Type in all cases: cell-based
Kv7.1 [1] = target: T1, Kv7.1 (Homo sapiens, UniProt P51787); assay: Whole-cell patch clamp of Kv7.1 currents (voltage steps) in transfected HEK293 cells; details: activator alone, HEK293
T1 construct: expressed in transfected cells; host or cells: HEK293
Procedure: (§1) The Tyrode’s solution contained (mM): 126 NaCl, 5.4 KCl, 1.8 CaCl2, 1 MgCl2, 0.33 NaH2PO4, 10 HEPES and 10 glucose, pH 7.4 (adjusted with NaOH). The Ca^2+-free Tyrode’s solution was prepared by removing CaCl2 from the Tyrode’s solution. The Kreb’s solution used for cell storage contained (mM): 70 glutamic acid, 30 KCl, 15 taurine, 0.5 MgCl2, 10 KH2PO4, 0.5 EGTA, 10 HEPES, 10 glucose, and 1% albumin, pH 7.4 (adjusted with KOH). The enzyme solution used for the rat cardiomyocyte isolation contained 0.08 g/L collagenase (type II) and 1.0 g/L BSA in Kreb’s solution. For action potential recording on cardiomyocyte, the pipette solution contained (mM): 100 potassium aspartate, 30 KCl, 1 MgCl2, 5 Mg-ATP, 5 EGTA, 5 HEPES, pH 7.3 (adjusted with KOH); the Tyrode’s solution was used as the standard bath solution. For whole-cell recording of IKs on myocytes, the pipette solution contained (mM): 125 potassium aspartate, 20 KCl, 1 MgCl2, 5 Mg-ATP, 10 EGTA, 5 HEPES, pH 7.3 (adjusted with KOH); the bath solution contained (mM): 132 NaCl, 4 KCl, 1.8 CaCl2, 1.2 MgCl2, 10 HEPES, 5 glucose, pH 7.4 (adjusted with NaOH). 3 μM nifedipine and 5 μM E-4031 were used to block the calcium current and IKr, respectively. For whole-cell recording on HEK-293 cells, the pipette solution contained (mM): 140 KCl, 2 MgCl2, 10 HEPES, 0.1 EGTA, 4 K2-ATP, pH 7.3 (adjusted with KOH); the bath solution contained (mM): 120 NaCl, 5 KCl, 1.5 CaCl2, 1 MgCl2, 10 HEPES, 10 glucose, pH 7.4 (adjusted with NaOH). For single-channel recording, the pipette solution (extracellular) contained (mM): 145 KCl, 10 HEPES, 10 glucose, pH 7.4 (adjusted with KOH); the bath solution (intracellular) contained (mM): 145 KCl, 1.2 MgCl2, 10 HEPES, 0.1 EGTA, pH 7.38 (adjusted with KOH).
(§2) Cell suspensions were transferred into a chamber on the stage of a Nikon Eclipse Ti inverted microscope (Tokyo, Japan). The whole-cell recordings were performed using isolated single ventricular myocytes. Patch electrodes were pulled from a horizontal microelectrode puller (P-1000, Sutter Instrument Co, USA) and fire polished to final tip resistance of 4.0–8.0 MΩ when filled with internal solutions. Signals were amplified with an Axopatch 200B amplifier (Axon Instruments, USA) and filtered at 1 kHz. The pCLAMP 9.0 software was used to generate current and voltage clamp protocols, acquire data, and analyse the current traces. The whole-cell series resistance was compensated to more than 80%. All of the experiments were performed at room temperature (22 ± 1 °C). The whole-cell IK1 was elicited by a ramp voltage protocol from −140 to + 40 mV in 1 s, or at a 0 mV holding potential to test potentials from −140 to + 40 mV in 10 mV increments. The IK1 was calculated as the difference between the peak inward current and the holding current level. The whole-cell Kv7.1/IKs were elicited from a −30 mV holding potential to test potentials from −80 to + 40 mV in 10 mV increments.
(§3) Human Kir2.1 cDNA, Kir2.3 cDNA, Kv7.1 cDNA and KCNE1 cDNA, was cloned in Human Embryonic Kidney 293 cells, respectively. In some cases, Kv7.1 cDNA and KCNE1 cDNA were simultaneously cloned in Human Embryonic Kidney 293 cells.

Kv7.1 [2] = target: T1, Kv7.1; assay: Single-channel inside-out patch clamp recording of Kv7.1; details: 293B applied after puerarin 100 μM
Procedure: as §1, with “3 μM nifedipine and 5 μM E-4031 were used to block the calcium current and IKr, respectively. For whole-cell recording on HEK-293 cells, the pipette solution contained (mM): 140 KCl, 2 MgCl2, 10 HEPES, 0.1 EGTA, 4 K2-ATP, pH 7.3 (adjusted with KOH); the bath solution contained (mM): 120 NaCl, 5 KCl, 1.5 CaCl2, 1 MgCl2, 10 HEPES, 10 glucose, pH 7.4 (adjusted with NaOH). For single-channel recording, the pipette solution (extracellular) contained (mM): 145 KCl, 10 HEPES, 10 glucose, pH 7.4 (adjusted with KOH); the bath solution (intracellular) contained (mM): 145 KCl, 1.2 MgCl2, 10 HEPES, 0.1 EGTA, pH 7.38 (adjusted with KOH).” left out
(§4) Single-channel activity was recorded at a series of holding levels ranging from 10 mV of 50 mV. […] Single-channel events were listed and analysed by pclampfit 9.0 (single-channel search-in-analyse function). […]

IKs channel = target: T2, IKs channel (Homo sapiens, UniProt P51787); assay: Single-channel inside-out patch clamp recording of IKs; details: 293B applied after puerarin 100 μM
T2 construct: expressed in transfected cells; host or cells: HEK293
Procedure: as §1, with “3 μM nifedipine and 5 μM E-4031 were used to block the calcium current and IKr, respectively. For whole-cell recording on HEK-293 cells, the pipette solution contained (mM): 140 KCl, 2 MgCl2, 10 HEPES, 0.1 EGTA, 4 K2-ATP, pH 7.3 (adjusted with KOH); the bath solution contained (mM): 120 NaCl, 5 KCl, 1.5 CaCl2, 1 MgCl2, 10 HEPES, 10 glucose, pH 7.4 (adjusted with NaOH). For single-channel recording, the pipette solution (extracellular) contained (mM): 145 KCl, 10 HEPES, 10 glucose, pH 7.4 (adjusted with KOH); the bath solution (intracellular) contained (mM): 145 KCl, 1.2 MgCl2, 10 HEPES, 0.1 EGTA, pH 7.38 (adjusted with KOH).” left out
as §4

[3] = target: T3, IKs channels (KCNQ and KCNE) (Homo sapiens, UniProt P51787); assay: Whole-cell patch clamp of IKs currents (Kv7.1 + KCNE1, voltage steps) in transfected HEK293 cells
T3 construct: expressed in transfected cells; host or cells: HEK293
Procedure: as §1, §2, §3

IKs = target: T4, IKs (Rattus norvegicus, UniProt Q9Z0N7); assay: Whole-cell recording of IKs on rat ventricular myocytes; details: forskolin alone
T4 construct: endogenous in cells; host or cells: isolated adult rat ventricular myocytes
Procedure: as §1, with “3 μM nifedipine and 5 μM E-4031 were used to block the calcium current and IKr, respectively. For whole-cell recording on HEK-293 cells, the pipette solution contained (mM): 140 KCl, 2 MgCl2, 10 HEPES, 0.1 EGTA, 4 K2-ATP, pH 7.3 (adjusted with KOH); the bath solution contained (mM): 120 NaCl, 5 KCl, 1.5 CaCl2, 1 MgCl2, 10 HEPES, 10 glucose, pH 7.4 (adjusted with NaOH). For single-channel recording, the pipette solution (extracellular) contained (mM): 145 KCl, 10 HEPES, 10 glucose, pH 7.4 (adjusted with KOH); the bath solution (intracellular) contained (mM): 145 KCl, 1.2 MgCl2, 10 HEPES, 0.1 EGTA, pH 7.38 (adjusted with KOH).” left out
Cell suspensions were transferred into a chamber on the stage of a Nikon Eclipse Ti inverted microscope (Tokyo, Japan). […] The IK1 was calculated as the difference between the peak inward current and the holding current level. […]

rat ventricular myocytes = assay: Action potential recording on isolated rat ventricular myocytes; details: isoproterenol 10 nM, comparing with control
Procedure: as §1
Single ventricular myocytes were isolated from adult rat hearts via enzymatic dissociation as previously described. Briefly, the rats were anesthetised with 25% chloral hydrate (0.1 g/100 g). Their hearts were excised rapidly and retrogradely perfused on a Langendorff apparatus with a Ca^2+-free Tyrode’s solution for 5 min before the perfusate was switched to an enzymatic solution for 10–20 min. The perfusate was finally changed to Kreb’s solution for 5 min. The perfusates were bubbled with 95% O2 + 5% CO2 and maintained at 37 °C. The ventricles w ere cut into small chunks and gently agitated in Kreb’s solution. The cells were filtered through nylon mesh (pore size 200 μm) and stored in Kreb’s solution at 4 °C.
Action potentials were elicited at 1 Hz by 2 ms current pulses applied using the patch pipette.
as §2

8-Bromoadenosine-3′, 5′-cyclic monophosphorothioate [8-Br-cAMP]
effect on Kv7.1 current (Kv7.1 [1]): significantly enhanced

CCS(=O)(=O)N(C)[C@H]1c2cc(C#N)ccc2OC(C)(C)[C@@H]1O [293B]
open probability of Kv7.1 channel (Kv7.1 [2]): further abolished | open probability of IKs channel (IKs channel): further abolished

O=C(O)[C@H]1O[C@@H](Oc2cc3oc(-c4ccccc4)cc(=O)c3c(O)c2O)[C@H](O)[C@@H](O)[C@@H]1O [Baicalin]
maximal increased effect upon IKs currents ([3]; HEK293): 57.32 ± 3.07% | saturation dosage, enhancement of IKs ([3]; HEK293): 1 mM | EC50 ([3]; at the peak currents, non-linear Hill fit, read-out: EC50, enhancement of IKs currents): 138 µM | Hill coefficient, enhancement of IKs ([3]; non-linear Hill fit): 0.993

C=C[C@@]1(C)CC(=O)[C@]2(O)[C@@]3(C)[C@@H](O)CCC(C)(C)[C@@H]3[C@H](O)[C@H](OC(C)=O)[C@@]2(C)O1 [Forskolin]
effect on Kv7.1 current (Kv7.1 [1]): significantly enhanced | effect on IKs current in rat cardiac myocytes (IKs): significantly enhanced

CC(C)NCC(O)c1ccc(O)c(O)c1 (centres unmarked) [Isoproterenol]
effect on APD of rat ventricles (rat ventricular myocytes): significantly shortened | effect on Kv7.1 current (Kv7.1 [1]): significantly enhanced
